Source: ChEMBL document CHEMBL4418268, “Nitrogen-containing heterocyclic compound” (2018)

What follows are compounds tested on HUVEC (assay: Inhibition of TNF-alpha-induced CXCL10 production in HUVEC cells at 0.1 uM incubated for 1 hr followed by TNF-alpha addition and measured after 72 hrs by ELISA relative to control). Settings: Homo sapiens.
Format: functional
CCn1c(=O)cc(N2CCOCC2)c2cc(-n3c(-c4ccccc4)cn(C(C)C)c3=O)ccc21 was tested, and the inhibition at 0.1 µM was ≥ 50%. For CCn1c(=O)cc(N2CCOCC2)c2cc(-n3c(-c4ccccc4)cn(CCN4CCOCC4)c3=O)ccc21, the inhibition at 0.1 µM was ≥ 50%. With CCn1c(=O)cc(C2CC2)c2cc(N3C(=O)C(C)C(=O)N3c3ccccc3)ccc21 (stereo unspecified) the inhibition at 0.1 µM was ≥ 50%. For CCn1c(=O)cc(C)c2cc(-c3cccnc3-c3ccccc3)ccc21, the inhibition at 0.1 µM was ≥ 50%. For CCn1c(=O)cc(C2CC2)c2cc(-n3c(=O)cc(C)n3-c3ccccc3)ccc21, the inhibition at 0.1 µM was ≥ 50%. In the case of CCn1c(=O)cc(C2CCN(C(C)=O)CC2)c2cc(C(=O)N(C)c3ccc(C)cc3)ccc21, the inhibition at 0.1 µM is reported as ≥ 50%. With CCn1c(=O)cc(C2CC2)c2cc(N3C(=O)CC[C@H]3c3ccccc3)ccc21 the inhibition at 0.1 µM was ≥ 50%. In the case of CCn1c(=O)cc(C2CC2)c2cc(-n3c(-c4ccc(C(F)(F)F)cc4)c[nH]c3=O)ccc21, the inhibition at 0.1 µM is reported as ≥ 50%. For CCn1c(=O)cc(C2CCN(C)CC2)c2cc(C(=O)N3CCCc4ccccc43)ccc21, the inhibition at 0.1 µM was ≥ 50%. In the case of CCn1c(=O)cc(C2CC2)c2cc(N(C)C(=O)c3ccccc3)ccc21, the inhibition at 0.1 µM is reported as ≥ 50%. For CCn1c(=O)cc(N2CCOCC2)c2cc(-n3c(-c4ccccc4)c[nH]c3=O)ccc21, the inhibition at 0.1 µM was ≥ 50%. For CCn1c(=O)cc(C2CCN(C)CC2)c2cc(C(=O)N(C)c3ccc(C)c(C)c3)ccc21, the inhibition at 0.1 µM was ≥ 50%. With CCn1c(=O)cc(C2CC2)c2cc(-n3c(-c4ccc(Cl)cc4)cn(C)c3=O)ccc21 the inhibition at 0.1 µM was ≥ 50%. In the case of CCn1c(=O)cc(C2CC2)c2cc(-n3c(-c4ccc(C)cc4)cn(C)c3=O)ccc21, the inhibition at 0.1 µM is reported as ≥ 50%. For CCn1c(=O)cc(C2CC2)c2cc(-n3c(-c4ccc(C)cc4)c[nH]c3=O)ccc21, the inhibition at 0.1 µM was ≥ 50%. For CCn1c(=O)cc(N2CCOCC2)c2cc(-n3c(-c4ccc(C(F)(F)F)cc4)cn(C)c3=O)ccc21, the inhibition at 0.1 µM was ≥ 50%. With CCn1c(=O)cc(N2CCOCC2)c2cc(-n3c(-c4ccccc4)cn(CCO)c3=O)ccc21 the inhibition at 0.1 µM was ≥ 50%. For CCn1c(=O)cc(N2CCOCC2)c2cc(-n3c(-c4ccccc4)cn(CCN(C)C)c3=O)ccc21, the inhibition at 0.1 µM was ≥ 50%. CCn1c(=O)cc(C2CCN(C)CC2)c2cc(C(=O)N(C)c3ccc(C)c(F)c3)ccc21 was tested, and the inhibition at 0.1 µM was ≥ 50%. CCn1c(=O)cc(N2CCOCC2)c2cc(-c3cccnc3-c3ccccc3)ccc21 was tested, and the inhibition at 0.1 µM was ≥ 50%. With CCN1CCC(c2cc(=O)n(CC)c3ccc(C(=O)N(C)c4ccccc4)cc23)CC1 the inhibition at 0.1 µM was ≥ 50%. In the case of CCn1c(=O)cc(N2CCOCC2)c2cc(-n3c(-c4ccc(Cl)cc4)cn(C)c3=O)ccc21, the inhibition at 0.1 µM is reported as ≥ 50%. With CCn1c(=O)cc(C2CCC(O)CC2)c2cc(C(=O)N(C)c3ccc(Cl)cc3)ccc21 (stereo unspecified) the inhibition at 0.1 µM was ≥ 50%. For CCC1C(=O)N(c2ccccc2)N(c2ccc3c(c2)c(C2CC2)cc(=O)n3CC)C1=O (stereo unspecified), the inhibition at 0.1 µM was ≥ 50%. CCn1c(=O)cc(N2CCOCC2)c2cc(-n3c(-c4ccc(C)cc4)cn(C)c3=O)ccc21 was tested, and the inhibition at 0.1 µM was ≥ 50%. For CCn1c(=O)cc(C2CC2)c2cc(-n3c(C)cc(=O)n3-c3ccccc3)ccc21, the inhibition at 0.1 µM was ≥ 50%. In the case of CCn1c(=O)cc(N2CCOCC2)c2cc(-c3ccccc3-c3ccccc3)ccc21, the inhibition at 0.1 µM is reported as ≥ 50%. For CCn1c(=O)cc(C2CC2)c2cc(-c3cccnc3-c3ccccc3)ccc21, the inhibition at 0.1 µM was ≥ 50%. With CCn1c(=O)cc(C2CC2)c2cc(-n3c(=O)[nH]c(=O)n3-c3ccccc3)ccc21 the inhibition at 0.1 µM was ≥ 50%. For CCn1c(=O)cc(N2CCOCC2)c2cc(-c3nccn3-c3ccccc3)ccc21, the inhibition at 0.1 µM was ≥ 50%. CCn1c(=O)cc(C2CC2)c2cc(-n3c(-c4ccc(C(F)(F)F)cc4)cn(C)c3=O)ccc21 was tested, and the inhibition at 0.1 µM was ≥ 50%. With CCn1c(=O)cc(C2CC2)c2cc(-n3c(-c4ccc(Cl)cc4)c[nH]c3=O)ccc21 the inhibition at 0.1 µM was ≥ 50%. With CCn1c(=O)cc(N2CCOCC2)c2cc(N(C)C(=O)c3ccc(Cl)cc3)ccc21 the inhibition at 0.1 µM was ≥ 50%. CCn1c(=O)cc(C(C)C)c2cc(N(C)C(=O)c3ccc(Cl)cc3)ccc21 was tested, and the inhibition at 0.1 µM was ≥ 50%. With CCCCn1cc(-c2ccccc2)n(-c2ccc3c(c2)c(N2CCOCC2)cc(=O)n3CC)c1=O the inhibition at 0.1 µM was ≥ 50%. For CCn1c(=O)cc(N2CCOCC2)c2cc(-n3ccnc3-c3ccccc3)ccc21, the inhibition at 0.1 µM was ≥ 50%. With CCn1c(=O)cc(C2CCN(C)CC2)c2cc(C(=O)N(C)c3ccc4c(c3)CCC4)ccc21 the inhibition at 0.1 µM was ≥ 50%. In the case of CCn1c(=O)cc(N2CCOCC2)c2cc(-n3c(-c4ccc(C)cc4)c[nH]c3=O)ccc21, the inhibition at 0.1 µM is reported as ≥ 50%. With CCn1c(=O)cc(N2CCOCC2)c2cc(-n3c(-c4ccc(Cl)cc4)c[nH]c3=O)ccc21 the inhibition at 0.1 µM was ≥ 50%. For CCn1c(=O)cc(N2CCOCC2)c2cc(-n3c(-c4ccccc4)cn(CCOC)c3=O)ccc21, the inhibition at 0.1 µM was ≥ 50%. In the case of CCn1c(=O)cc(N2CCOCC2)c2cc(N3C(=O)CC[C@H]3c3ccccc3)ccc21, the inhibition at 0.1 µM is reported as ≥ 50%. CCn1c(=O)cc(N2CCOCC2)c2cc(-n3cc(C)nc3-c3ccccc3)ccc21 was tested, and the inhibition at 0.1 µM was ≥ 50%. In the case of CCn1c(=O)cc(C2CC2)c2cc(-c3nc(C)[nH]c3-c3ccccc3)ccc21, the inhibition at 0.1 µM is reported as ≥ 50%. For CCn1c(=O)cc(C2CCN(C)CC2)c2cc(C(=O)N(C)c3ccc(C)c(Cl)c3)ccc21, the inhibition at 0.1 µM was ≥ 50%. With CCn1c(=O)cc(C2CCN(C)CC2)c2cc(C(=O)N(C)c3ccc(C)cc3)ccc21 the inhibition at 0.1 µM was ≥ 50%. In the case of CCn1c(=O)cc(N2CCOCC2)c2cc(-n3c(-c4ccccc4)cn(CCN4CCCCC4)c3=O)ccc21, the inhibition at 0.1 µM is reported as ≥ 50%. In the case of CCn1c(=O)cc(C2CC2)c2cc(-c3nccnc3-c3ccccc3)ccc21, the inhibition at 0.1 µM is reported as ≥ 50%. With CCn1c(=O)cc(N2CCOCC2)c2cc(-n3c(-c4ccc(C(F)(F)F)cc4)c[nH]c3=O)ccc21 the inhibition at 0.1 µM was ≥ 50%. With CCn1c(=O)cc(C2CC2)c2cc(-c3nc(C)nn3-c3ccccc3)ccc21 the inhibition at 0.1 µM was ≥ 50%. For CCn1cc(-c2ccccc2)n(-c2ccc3c(c2)c(N2CCOCC2)cc(=O)n3CC)c1=O, the inhibition at 0.1 µM was ≥ 50%. For CCCn1cc(-c2ccccc2)n(-c2ccc3c(c2)c(N2CCOCC2)cc(=O)n3CC)c1=O, the inhibition at 0.1 µM was ≥ 50%.
